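Values below derive from 48-hour exposures of cells grown in 96-well plates, with endpoints linearly interpolated between the two concentrations bracketing the appropriate inhibition level. GI50 marks 50% less growth.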 Calls of active or inactive are those of the source. No stated cut-off is given here; in the data, active = GI50 up to about 1.1 µM and inactive = higher.
How the values were obtained:
Assay in all cases: NCI tumour cell line growth inhibition, 48 h
SK-MEL-2 = test system: SK-MEL-2
HCT-116 = test system: HCT-116
MDA-MB-435 = test system: MDA-MB-435
SW-620 = test system: SW-620
COLO 205 = test system: COLO 205
SF-295 = test system: SF-295
SR = test system: SR
NCI/ADR-RES = test system: NCI/ADR-RES
SK-MEL-5 = test system: SK-MEL-5
U-251 = test system: U-251
UACC-62 = test system: UACC-62
A549 = test system: A549
OVCAR-3 = test system: OVCAR-3
HT-29 = test system: HT-29
UO-31 = test system: UO-31
NCI-H23 = test system: NCI-H23
SN12C = test system: SN12C
Hs-578T = test system: Hs-578T
LOX IMVI = test system: LOX IMVI
HOP-92 = test system: HOP-92

Measured: GI50

O=C(/C=C/c1ccc(O)c(O)c1)OCCCc1ccccc1
inactive: SK-MEL-2 17.5 µM | HCT-116 10.6 µM | MDA-MB-435 9.44 µM | SW-620 12.6 µM | COLO 205 12.4 µM | SF-295 16 µM | SR 5.69 µM | NCI/ADR-RES 8.39 µM | SK-MEL-5 13.2 µM | U-251 11 µM | UACC-62 9.84 µM | A549 14.3 µM | OVCAR-3 1.71 µM | HT-29 21.9 µM | UO-31 4.95 µM | NCI-H23 13.2 µM | SN12C 11.9 µM | Hs-578T 28.4 µM | LOX IMVI 12.3 µM | HOP-92 12.9 µM

S=C(Nc1ccc2c(c1)oc1ccccc12)c1cccs1
inactive: SK-MEL-2 > 100 µM | HCT-116 > 100 µM | MDA-MB-435 > 100 µM | SW-620 > 100 µM | COLO 205 > 100 µM | SF-295 16.6 µM | SR 4.25 µM | NCI/ADR-RES > 100 µM | SK-MEL-5 > 100 µM | U-251 30.5 µM | UACC-62 82.8 µM | A549 66.7 µM | OVCAR-3 23 µM | HT-29 3.66 µM | UO-31 > 100 µM | NCI-H23 > 100 µM | SN12C > 100 µM | Hs-578T 29.8 µM | LOX IMVI 7.73 µM | HOP-92 53.5 µM

COc1ccc(-n2nnc3c(C#N)c(-c4ccccc4)c(C)n3c2=O)cc1
inactive: SK-MEL-2 28 µM | HCT-116 43.2 µM | MDA-MB-435 > 100 µM | SW-620 27.2 µM | COLO 205 33.7 µM | SF-295 54.6 µM | SR 7.45 µM | NCI/ADR-RES 66.2 µM | SK-MEL-5 14.8 µM | U-251 32.7 µM | UACC-62 53.7 µM | A549 > 100 µM | OVCAR-3 28.2 µM | HT-29 43.9 µM | UO-31 71.3 µM | NCI-H23 80.4 µM | SN12C 62.5 µM | Hs-578T > 100 µM | LOX IMVI 33.8 µM | HOP-92 23.8 µM

COc1ccc(C#CC(=O)O)c(OC)c1
inactive: SK-MEL-2 > 100 µM | HCT-116 > 100 µM | MDA-MB-435 > 100 µM | SW-620 > 100 µM | COLO 205 > 100 µM | SF-295 > 100 µM | SR > 100 µM | NCI/ADR-RES > 100 µM | SK-MEL-5 > 100 µM | U-251 > 100 µM | UACC-62 > 100 µM | A549 > 100 µM | OVCAR-3 > 100 µM | HT-29 > 100 µM | UO-31 > 100 µM | NCI-H23 > 100 µM | SN12C > 100 µM | Hs-578T > 100 µM | LOX IMVI > 100 µM | HOP-92 > 100 µM

CS(=O)(=O)OCCCCOS(=O)(=O)CF
inactive: SK-MEL-2 > 100 µM | HCT-116 > 100 µM | MDA-MB-435 > 100 µM | SW-620 > 100 µM | COLO 205 > 100 µM | SF-295 > 100 µM | SR > 73.3 µM | NCI/ADR-RES > 100 µM | SK-MEL-5 > 100 µM | U-251 > 100 µM | UACC-62 > 100 µM | A549 > 100 µM | OVCAR-3 > 100 µM | HT-29 > 100 µM | UO-31 > 100 µM | NCI-H23 > 100 µM | SN12C > 100 µM | Hs-578T > 100 µM | LOX IMVI > 100 µM | HOP-92 > 49.5 µM

COc1cc2c(cc1OC)C1(c3ccccc3)CN(C2)Cc2cc(OC)c(OC)cc21
inactive: SK-MEL-2 25.7 µM | HCT-116 24.9 µM | MDA-MB-435 14.5 µM | SW-620 33.6 µM | COLO 205 17.1 µM | SF-295 32.6 µM | SR 5.3 µM | NCI/ADR-RES 25.4 µM | SK-MEL-5 18.6 µM | U-251 22.2 µM | UACC-62 32.3 µM | A549 46.3 µM | OVCAR-3 54.6 µM | HT-29 29 µM | UO-31 80.9 µM | NCI-H23 24.5 µM | SN12C > 100 µM | Hs-578T 27.5 µM | LOX IMVI 34.8 µM | HOP-92 32.6 µM

Nc1nn2c(nc(N)c3c(N)n[nH]c32)c1/N=N\c1ccc(Br)cc1
inactive: SK-MEL-2 12.3 µM | HCT-116 53.8 µM | MDA-MB-435 3.13 µM | SW-620 43.7 µM | COLO 205 > 63.2 µM | SF-295 > 100 µM | SR 2.72 µM | NCI/ADR-RES > 100 µM | SK-MEL-5 > 100 µM | U-251 6.01 µM | UACC-62 > 100 µM | A549 > 100 µM | OVCAR-3 32.6 µM | HT-29 55.8 µM | UO-31 > 100 µM | NCI-H23 > 5.61 µM | SN12C 7.76 µM | Hs-578T 3.32 µM | LOX IMVI 2.88 µM | HOP-92 3.71 µM

CCCCCCc1ccc(C(=O)NO)cc1
inactive: SK-MEL-2 44.9 µM | HCT-116 29.6 µM | MDA-MB-435 53.5 µM | SW-620 64.4 µM | COLO 205 41.5 µM | SF-295 40.6 µM | SR 9.98 µM | NCI/ADR-RES 15.3 µM | SK-MEL-5 47.1 µM | U-251 38.8 µM | UACC-62 24.9 µM | A549 33.8 µM | OVCAR-3 30.3 µM | HT-29 36 µM | UO-31 15.7 µM | NCI-H23 28.3 µM | SN12C 21.9 µM | Hs-578T > 100 µM | LOX IMVI 17.2 µM | HOP-92 48 µM

O=C1OI(C#Cc2ccccc2)c2ccccc21
inactive: SK-MEL-2 11.7 µM | HCT-116 2.24 µM | MDA-MB-435 3.72 µM | SW-620 2.19 µM | COLO 205 3.37 µM | SF-295 13.5 µM | SR 1.46 µM | NCI/ADR-RES 5.98 µM | SK-MEL-5 2.19 µM | U-251 2.62 µM | UACC-62 5.04 µM | A549 8.65 µM | OVCAR-3 2.64 µM | HT-29 3.94 µM | UO-31 4.13 µM | NCI-H23 2.38 µM | SN12C 4.16 µM | Hs-578T 4.16 µM | LOX IMVI 2.74 µM | HOP-92 1.88 µM

COC(=O)C1[C@H](C(=O)OC)C1(Br)CBr (stereo not given in full)
inactive: SK-MEL-2 > 100 µM | HCT-116 > 100 µM | MDA-MB-435 > 100 µM | SW-620 > 100 µM | COLO 205 > 100 µM | SF-295 > 100 µM | SR > 100 µM | NCI/ADR-RES > 100 µM | SK-MEL-5 > 100 µM | U-251 > 100 µM | UACC-62 > 100 µM | A549 > 100 µM | OVCAR-3 > 100 µM | HT-29 > 100 µM | UO-31 > 100 µM | NCI-H23 > 100 µM | SN12C > 100 µM | Hs-578T > 100 µM | LOX IMVI > 100 µM | HOP-92 > 100 µM
